Test results: PubChem BioAssay AID1259407 (Chemical Carcinogenesis Research Information System (CCRIS), 2018)
The source made the active and inactive calls. No rule for the calls is given here.

System: CCRIS mutagenicity, Ames/micronucleus/aberration tests
Test: CCRIS mutagenicity studies
[1] = Test System: AMES SALMONELLA TYPHIMURIUM, Strain/Indicator: TA100, Metabolic Activation: NONE, Method: STANDARD PLATE

With `COP(=S)(OC)SCC(=O)N(C)C=O` the mutagenic call (Test System: AMES SALMONELLA TYPHIMURIUM, Strain/Indicator: TA97A, Metabolic Activation: NONE, Method: STANDARD PLATE) was “inactive; negative”, the mutagenic call (Test System: AMES SALMONELLA TYPHIMURIUM, Strain/Indicator: TA97A, Metabolic Activation: PLANT, HOMOGENATE, S-14, Method: STANDARD PLATE) was “inactive; negative” and the mutagenic call (Test System: AMES SALMONELLA TYPHIMURIUM, Strain/Indicator: TA97A, Metabolic Activation: S-9, Method: STANDARD PLATE) was “inactive; negative”. The mutagenic call (Test System: AMES SALMONELLA TYPHIMURIUM, Strain/Indicator: TA98, Metabolic Activation: NONE, Method: STANDARD PLATE) was “inactive; negative”, the mutagenic call (Test System: AMES SALMONELLA TYPHIMURIUM, Strain/Indicator: TA98, Metabolic Activation: PLANT, HOMOGENATE, S-14, Method: STANDARD PLATE) was “inactive; negative” and the mutagenic call (Test System: AMES SALMONELLA TYPHIMURIUM, Strain/Indicator: TA98, Metabolic Activation: S-9, Method: STANDARD PLATE) was “inactive; negative”. For the same compound, the mutagenic call [1] was “inactive; negative”, the mutagenic call (Test System: AMES SALMONELLA TYPHIMURIUM, Strain/Indicator: TA100, Metabolic Activation: PLANT, HOMOGENATE, S-14, Method: STANDARD PLATE) was “inactive; negative” and the mutagenic call (Test System: AMES SALMONELLA TYPHIMURIUM, Strain/Indicator: TA100, Metabolic Activation: S-9, Method: STANDARD PLATE) was “inactive; negative”. For the same compound, the mutagenic call (Test System: AMES SALMONELLA TYPHIMURIUM, Strain/Indicator: TA1535, Metabolic Activation: NONE, Method: STANDARD PLATE) was “inactive; negative”, the mutagenic call (Test System: AMES SALMONELLA TYPHIMURIUM, Strain/Indicator: TA1535, Metabolic Activation: PLANT, HOMOGENATE, S-14, Method: STANDARD PLATE) was “inactive; negative” and the mutagenic call (Test System: AMES SALMONELLA TYPHIMURIUM, Strain/Indicator: TA1535, Metabolic Activation: S-9, Method: STANDARD PLATE) was “inactive; negative”.
In the case of `O=[N+]([O-])c1ccc(Cl)cc1`, the mutagenic call (End Point: IN VITRO CHROMOSOMAL ABERRATIONS, Test System: CHL CELLS, Metabolic Activation: NONE) was “active; positive (ploidy changes); precipitation occurred at 0.4, 0.5, and 0.6 mg/ml”, the mutagenic call (End Point: IN VITRO CHROMOSOMAL ABERRATIONS, Test System: CHL CELLS, Metabolic Activation: RAT, LIVER, S-9, SODIUM PHENOBARBITAL AND 5,6-BENZOFLAVONE) was “active; positive (structural changes); authors report equivocal results for ploidy chang” and the mutagenic call (End Point: IN VITRO CHROMOSOMAL ABERRATIONS, Test System: HUMAN PERIPHERAL LYMPHOCYTES, Metabolic Activation: NONE) was “inactive; negative”. For the same compound, the mutagenic call (Test System: AMES SALMONELLA TYPHIMURIUM, Strain/Indicator: TA98, Metabolic Activation: NONE, Method: PREINCUBATION) was “inactive; negative”, the mutagenic call (Test System: AMES SALMONELLA TYPHIMURIUM, Strain/Indicator: TA98, Metabolic Activation: RAT, LIVER, S-9, KANECHLOR 500, Method: PREINCUBATION) was “inactive; negative” and the mutagenic call (Test System: AMES SALMONELLA TYPHIMURIUM, Strain/Indicator: TA100, Metabolic Activation: NONE, Method: PREINCUBATION) was “inactive; negative”. The mutagenic call (Test System: Ames Salmonella typhimurium, Strain/Indicator: TA98, Metabolic Activation: None, Method: Preincubation) was “inactive; negative”, the mutagenic call (Test System: Ames Salmonella typhimurium, Strain/Indicator: TA98, Metabolic Activation: Rat, Liver, S9, Sodium phenobarbital and 5,6-benzoflavone (10%), Method: Preincubation) was “inactive; negative” and the mutagenic call (Test System: Ames Salmonella typhimurium, Strain/Indicator: TA98, Metabolic Activation: Rat, Liver, S9, Sodium phenobarbital and 5,6-benzoflavone, Method: Preincubation) was “inactive; negative”. The mutagenic call (Test System: Ames Salmonella typhimurium, Strain/Indicator: TA100, Metabolic Activation: None, Method: Preincubation) was “inactive; negative”, the mutagenic call (Test System: Ames Salmonella typhimurium, Strain/Indicator: TA1535, Metabolic Activation: None, Method: Preincubation) was “inactive; negative” and the mutagenic call (Test System: Ames Salmonella typhimurium, Strain/Indicator: TA1535, Metabolic Activation: Rat, Liver, S9, Sodium phenobarbital and 5,6-benzoflavone (10%), Method: Preincubation) was “inactive; negative”. The mutagenic call (Test System: Ames Salmonella typhimurium, Strain/Indicator: TA1537, Metabolic Activation: None, Method: Preincubation) was “inactive; negative”, the mutagenic call (Test System: Ames Salmonella typhimurium, Strain/Indicator: TA1537, Metabolic Activation: Rat, Liver, S9, Sodium phenobarbital and 5,6-benzoflavone (10%), Method: Preincubation) was “inactive; negative” and the mutagenic call (Test System: Ames Salmonella typhimurium, Strain/Indicator: TA1537, Metabolic Activation: Rat, Liver, S9, Sodium phenobarbital and 5,6-benzoflavone, Method: Preincubation) was “inactive; negative”. For the same compound, the mutagenic call (Test System: E. coli, Strain/Indicator: WP2uvrA/PKM101, Metabolic Activation: None, Method: Preincubation) was “inactive; negative”, the mutagenic call (Test System: E. coli, Strain/Indicator: WP2uvrA/PKM101, Metabolic Activation: Rat, Liver, S9, Sodium phenobarbital and 5,6-benzoflavone (10%), Method: Preincubation) was “inactive; negative” and the mutagenic call (Test System: E. coli, Strain/Indicator: WP2uvrA/pKM101, Metabolic Activation: None, Method: Preincubation) was “inactive; negative”. The mutagenic call (Test System: E. coli, Strain/Indicator: WP2uvrA/pKM101, Metabolic Activation: Rat, Liver, S9, Sodium phenobarbital and 5,6-benzoflavone, Method: Preincubation) was “inactive; negative”.
With `c1cc(OCC2CO2)c2sncc2c1` (configuration not stated) the mutagenic call [1] was “active; positive”.
